Here are results for 32 compounds from US9546164B2 (GENENTECH, INC., priority 2013, dated 2017).

Counter-ions that a name gives are not always drawn.

Sequence of hNav1.7 (Q15858 other isoform, or with tags, fused parts or gaps): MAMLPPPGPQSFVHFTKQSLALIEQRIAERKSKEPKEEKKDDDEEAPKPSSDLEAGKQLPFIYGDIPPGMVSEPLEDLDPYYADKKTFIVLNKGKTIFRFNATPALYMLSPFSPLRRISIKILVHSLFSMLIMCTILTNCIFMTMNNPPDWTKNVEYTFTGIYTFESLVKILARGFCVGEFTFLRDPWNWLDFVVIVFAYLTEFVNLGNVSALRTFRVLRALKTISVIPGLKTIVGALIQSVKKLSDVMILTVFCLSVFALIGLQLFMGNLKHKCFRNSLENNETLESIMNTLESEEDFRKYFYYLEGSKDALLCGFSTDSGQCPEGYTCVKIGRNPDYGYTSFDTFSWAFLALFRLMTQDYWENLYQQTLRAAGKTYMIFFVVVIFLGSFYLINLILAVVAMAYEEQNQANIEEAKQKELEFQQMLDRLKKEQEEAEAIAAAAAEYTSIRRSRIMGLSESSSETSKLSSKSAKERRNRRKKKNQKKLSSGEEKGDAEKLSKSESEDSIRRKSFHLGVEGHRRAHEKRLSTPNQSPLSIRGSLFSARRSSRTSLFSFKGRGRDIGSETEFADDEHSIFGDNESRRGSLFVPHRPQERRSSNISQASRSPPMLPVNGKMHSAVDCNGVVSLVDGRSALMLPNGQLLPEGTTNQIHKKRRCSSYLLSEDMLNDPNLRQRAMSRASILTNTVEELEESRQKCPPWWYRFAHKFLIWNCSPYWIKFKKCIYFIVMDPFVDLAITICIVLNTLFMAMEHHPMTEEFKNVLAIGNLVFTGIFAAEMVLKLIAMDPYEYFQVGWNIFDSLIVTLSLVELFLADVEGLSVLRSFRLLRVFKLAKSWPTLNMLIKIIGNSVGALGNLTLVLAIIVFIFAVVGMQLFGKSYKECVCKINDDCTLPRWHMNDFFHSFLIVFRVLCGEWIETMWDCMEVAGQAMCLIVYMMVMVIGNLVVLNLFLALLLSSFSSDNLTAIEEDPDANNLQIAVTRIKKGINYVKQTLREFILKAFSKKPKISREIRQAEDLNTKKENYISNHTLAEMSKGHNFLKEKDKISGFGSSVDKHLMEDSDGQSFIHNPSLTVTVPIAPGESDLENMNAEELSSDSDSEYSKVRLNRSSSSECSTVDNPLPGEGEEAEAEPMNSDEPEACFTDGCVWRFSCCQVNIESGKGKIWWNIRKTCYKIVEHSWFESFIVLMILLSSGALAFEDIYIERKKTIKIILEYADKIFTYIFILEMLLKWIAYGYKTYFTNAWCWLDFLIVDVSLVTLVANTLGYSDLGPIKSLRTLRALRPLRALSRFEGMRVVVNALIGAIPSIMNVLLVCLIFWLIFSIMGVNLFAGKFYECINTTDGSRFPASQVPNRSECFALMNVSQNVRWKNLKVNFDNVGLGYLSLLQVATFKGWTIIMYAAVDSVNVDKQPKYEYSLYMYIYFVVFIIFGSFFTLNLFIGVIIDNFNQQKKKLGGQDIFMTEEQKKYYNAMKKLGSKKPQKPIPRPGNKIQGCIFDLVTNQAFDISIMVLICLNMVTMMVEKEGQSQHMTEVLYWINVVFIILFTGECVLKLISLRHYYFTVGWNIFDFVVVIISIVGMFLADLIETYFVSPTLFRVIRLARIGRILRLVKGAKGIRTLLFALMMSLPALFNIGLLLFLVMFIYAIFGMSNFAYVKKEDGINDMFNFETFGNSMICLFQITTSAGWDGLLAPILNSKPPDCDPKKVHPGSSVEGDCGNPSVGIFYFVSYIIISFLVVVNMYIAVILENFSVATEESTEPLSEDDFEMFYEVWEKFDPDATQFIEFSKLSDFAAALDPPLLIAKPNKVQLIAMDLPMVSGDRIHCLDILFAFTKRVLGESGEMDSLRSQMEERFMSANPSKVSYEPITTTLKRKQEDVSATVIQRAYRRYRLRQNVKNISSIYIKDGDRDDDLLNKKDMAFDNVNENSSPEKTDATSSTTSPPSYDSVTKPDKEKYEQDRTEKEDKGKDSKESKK
Sequence of hNav1.7 (Q07699 19-218 partner): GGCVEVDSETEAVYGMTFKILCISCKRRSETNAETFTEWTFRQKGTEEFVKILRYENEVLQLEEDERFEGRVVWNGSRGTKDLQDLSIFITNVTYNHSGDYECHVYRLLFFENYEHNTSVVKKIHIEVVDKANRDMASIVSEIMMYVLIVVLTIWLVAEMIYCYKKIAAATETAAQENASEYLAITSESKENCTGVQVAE

The first assay has as its target hNav1.7 (Homo sapiens (Human), UniProt Q15858). Kind of assay: Tritiated sulfonamide competitive binding to membranes from cells expressing hNav1.7 and the β1 subunit.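 Further: Filter-bound radioactivity counted by liquid scintillation, nonspecific binding defined with excess unlabelled ligand, IC50 fitted to percent inhibition of specific binding.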
Details: not given
For the compound `CS(=O)(=O)NC(=O)c1cc(C2CC2)c(CN2CCC(CF)(c3ccc(F)cc3)CC2)cc1F` [Example 513, 5-cyclopropyl-2-fluoro-4-((4-(fluoromethyl)-4-(4-fluorophenyl)piperidin-1-yl)methyl)-N-(methylsulfonyl)benzamide, trifluoroacetic acid salt], the IC50 stood at 69.8 nM. With `C[C@H]1CN(Cc2cc(F)c(C(=O)NS(=O)(=O)C3CC3)cc2C2CC2)CCN1[C@@H](C)c1cc(Cl)cc(Cl)c1` [Example 568, 5-cyclopropyl-N-(cyclopropylsulfonyl)-4-(((S)-4-((S)-1-(3,5-dichlorophenyl)ethyl)-3-methylpiperazin-1-yl)methyl)-2-fluorobenzamide], the IC50 amounted to 9.5 nM. Same read-out and setting: for `CS(=O)(=O)NC(=O)c1cc(C2CC2)c(O[C@@H]2CCCN(c3cc(Cl)cc(Cl)c3)C2)cc1F` [Example 44, (R)-5-cyclopropyl-4-((1-(3,5-dichlorophenyl)piperidin-3-yl)oxy)-2-fluoro-N-(methylsulfonyl)benzamide] the value was 3.6 nM. Regarding `O=C(NS(=O)(=O)N1CCC1)c1cc(C2CC2)c(O[C@@H]2CCCN(Cc3ccc(Cl)c(Cl)c3)C2)cc1F` [Example 19, (R)—N-(azetidin-1-ylsulfonyl)-5-cyclopropyl-4-((1-(3,4-dichlorobenzyl)piperidin-3-yl)oxy)-2-fluorobenzamide], the IC50 stood at 4.9 nM.

`Cc1ccc(CN2CCC[C@@H](Oc3cc(F)c(C(=O)NS(=O)(=O)N4CCC4)cc3C3CC3)C2)cc1` [Example 33, (R)—N-(azetidin-1-ylsulfonyl)-5-cyclopropyl-2-4-fluoro-((1-(4-methylbenzyl)piperidin-3-yl)oxy)benzamide]: the IC50 is 13.2 nM.

For `O=C(NS(=O)(=O)C1CC1)c1cc(C2CC2)c(CN2CCC(Oc3cc(C(F)(F)F)c(Cl)cn3)CC2)cc1F` [Example 522, 4-((4-((5-chloro-4-(trifluoromethyl)pyridin-2-yl)oxy)piperidin-1-yl)methyl)-5-cyclopropyl-N-(cyclopropylsulfonyl)-2-fluorobenzamide, trifluoroacetic acid salt], the IC50 came out at 5.2 nM.

The assay is the same for the next values; noted with them: read-out: Ligand Binding Assay; 100 pM [3H]compound, membranes with hNav1.7 and β1 subunit, 18 h, room temperature.
For `COC[C@@H](c1ccc(F)c(C(F)(F)F)c1)N1CCC(COc2cc(F)c(C(=O)NS(C)(=O)=O)cc2C2CC2)CC1` (single isomer, unassigned) [Example 187], the IC50 was 5 nM.

In the case of `CS(=O)(=O)NC(=O)c1cc(C2CC2)c(O[C@@H]2CCCN([C@@H](c3ccc(F)cc3Cl)C(F)(F)F)C2)cc1F` (single isomer, unassigned) [Example 298], the IC50 is 4.6 nM. The same measure, in the same setting: the result for `CCS(=O)(=O)NC(=O)c1cc(C2CC2)c(OCC2CCN([C@@H](C)c3ccc(Cl)cc3Cl)CC2)cc1F` [Example 285, (S)-5-cyclopropyl-4-((1-(1-(2,4-dichlorophenyl)ethyl)piperidin-4-yl)methoxy)-N-(ethylsulfonyl)-2-fluorobenzamide] reads 3.3 nM. The same measure, in the same setting: for `C[C@@H](c1cc(Cl)cc(Cl)c1)N1CC(C)(COc2cc(F)c(C(=O)NS(C)(=O)=O)cc2C2CC2)C1` (single isomer, unassigned) [Example 186] the value was 4 nM; for `CS(=O)(=O)NC(=O)c1cc(C2CC2)c(O[C@@H]2CCCN(Cc3ccc4c(c3)OCCO4)C2)cc1F` [Example 429, (R)-5-cyclopropyl-4-((1-((2,3-dihydrobenzo[b][1,4]dioxin-6-yl)methyl)piperidin-3-yl)oxy)-2-fluoro-N-(methylsulfonyl)benzamide, trifluoroacetic acid salt], 51.9 nM. With `COC[C@H](c1cc(Cl)cc(Cl)c1)N1CCC(C)(COc2cc(F)c(C(=O)NS(C)(=O)=O)cc2C2CC2)CC1` (single isomer, unassigned) [Example 173], the IC50 was 3.9 nM.

Regarding `CS(=O)(=O)NC(=O)c1cc(C2CC2)c(OCC2CCN(c3ccccc3Cl)CC2)cc1F` [Example 293, 4-((1-(2-Chlorophenyl)piperidin-4-yl)methoxy)-5-cyclopropyl-2-fluoro-N-(methylsulfonyl)benzamide], the IC50 amounted to 5.2 nM. With `O=C(NS(=O)(=O)N1CCC1)c1cc(C2CC2)c(OCC2CC3CCC(C2)N3Cc2ccccc2)cc1F` (centres unmarked) [Example 48, N-(azetidin-1-ylsulfonyl)-4-((8-benzyl-8-azabicyclo[3.2.1]octan-3-yl)methoxy)-5-cyclopropyl-2-fluorobenzamide], the IC50 was 2820 nM. With `C[C@H](c1ccc(F)cc1)N1CCC[C@@H](Oc2cc(F)c(C(=O)NS(=O)(=O)C3CC3)cc2C2CC2)C1` [Example 317, 5-cyclopropyl-N-(cyclopropylsulfonyl)-2-fluoro-4-(((R)-1-((R)-1-(4-fluorophenyl)ethyl)piperidin-3-yl)oxy)benzamide], the IC50 stood at 6 nM. On to `Cc1ccc(CN2CCC[C@@H](Oc3cc(F)c(C(=O)NS(C)(=O)=O)cc3C3CC3)C2)c(Cl)c1` [Example 424, (R)-4-((1-(2-chloro-4-methylbenzyl)piperidin-3-yl)oxy)-5-cyclopropyl-2-fluoro-N-(methylsulfonyl)benzamide, trifluoroacetic acid salt], for which the IC50 was determined as 2.5 nM. The same measure, in the same setting: the result for `CS(=O)(=O)NC(=O)c1cc(C2CC2)c(OCC2CN([C@@H](c3ccccc3)c3cccc(C#N)c3)C2)cc1F` [Example 108, (S)-4-((1-((3-Cyanophenyl)(phenyl)methyl)azetidin-3-yl)methoxy)-5-cyclopropyl-2-fluoro-N-(methylsulfonyl)benzamide] reads 94 nM. The same measure, in the same setting: for `COC[C@@](C)(c1cc(Cl)cc(Cl)c1)N1CCC(COc2cc(F)c(C(=O)NS(C)(=O)=O)cc2C2CC2)CC1` (single isomer, unassigned) [Example 201] the value was 5 nM; for `O=C(NS(=O)(=O)C1CC1)c1cc(C2CC2)c(OCC2CCN(S(=O)(=O)c3ccc(Br)c(Cl)c3)CC2)cc1F` [Example 391, 4-((1-((4-bromo-3-chlorophenyl)sulfonyl)piperidin-4-yl)methoxy)-5-cyclopropyl-N-(cyclopropylsulfonyl)-2-fluorobenzamide], 10.1 nM.

For `CCS(=O)(=O)NC(=O)c1cc(C2CC2)c(OCC2CCN(Cc3ccc(Cl)cc3Cl)CC2)cc1F` [Example 213, 5-cyclopropyl-4-((1-(2,4-dichlorobenzyl)piperidin-4-yl)methoxy)-N-(ethylsulfonyl)-2-fluorobenzamide], the IC50 was 2.5 nM. For the compound `CS(=O)(=O)NC(=O)c1cc(C2CC2)c(OCC2CCN(c3cccc(Cl)c3)CC2)cc1F` [Example 294, 4-((1-(3-Chlorophenyl)piperidin-4-yl)methoxy)-5-cyclopropyl-2-fluoro-N-(methylsulfonyl)benzamide], the IC50 was determined as 3.8 nM. `CS(=O)(=O)NC(=O)c1cc(C2CC2)c(O[C@@H]2CCCN(Cc3cccc(-c4ccccc4)c3)C2)cc1F` [Example 443, (R)-4-((1-([1,1′-biphenyl]-3-ylmethyl)piperidin-3-yl)oxy)-5-cyclopropyl-2-fluoro-N-(methylsulfonyl)benzamide, trifluoroacetic acid salt]: the IC50 was 3.4 nM.

On to `C[C@@H](c1cc(Cl)cc(Cl)c1)N1CCC(COc2cc(F)c(C(=O)NS(=O)(=O)N3CCC3)cc2C2CC2)CC1` (single isomer, unassigned) [Example 272], for which the IC50 was 4.2 nM. Take `CS(=O)(=O)NC(=O)c1cc(C2CC2)c(OCC2CCN(Cc3cc(Cl)c(F)c(Cl)c3)CC2)cc1F` [Example 454, 5-cyclopropyl-4-((1-(3,5-dichloro-4-fluorobenzyl)piperidin-4-yl)methoxy)-2-fluoro-N-(methylsulfonyl)benzamide, trifluoroacetic acid salt]: the IC50 was determined as 5 nM. On the same count and under the same terms, for `CC(C)N(C(=O)CN1CCC[C@@H](Oc2cc(F)c(C(=O)NS(C)(=O)=O)cc2C2CC2)C1)C(C)C` [Example 179] the value was 1800 nM.

For the compound `C[C@@H](c1cc(Cl)cc(Cl)c1)N1CCC(F)(COc2cc(F)c(C(=O)NS(=O)(=O)C3CC3)cc2C2CC2)CC1` [Example 350], the IC50 came to 4.5 nM.

For the compound `COCC(c1cc(Cl)cc(Cl)c1)N1CC(COc2cc(F)c(C(=O)NS(C)(=O)=O)cc2C2CC2)C1` (centres unmarked) [Example 91, 5-Cyclopropyl-4-((1-(1-(3,5-dichlorophenyl)-2-methoxyethyl)azetidin-3-yl)methoxy)-2-fluoro-N-(methylsulfonyl)benzamide], the IC50 came to 14.7 nM. As for `O=C(NS(=O)(=O)C1CC1)c1cc(C2CC2)c(OCC2CCN(S(=O)(=O)c3ccccc3C(F)(F)F)CC2)cc1F` [Example 371, 5-cyclopropyl-N-(cyclopropylsulfonyl)-2-fluoro-4-((1-((2-(trifluoromethyl)phenyl)sulfonyl)piperidin-4-yl)methoxy)benzamide], the IC50 came out at 20.3 nM. Regarding `O=C(NS(=O)(=O)C1CC1)c1cc(C2CC2)c(OCC2CCN(C(c3ccccc3)c3cc(Cl)cc(Cl)c3)CC2)cc1F` (centres unmarked) [Example 411, 5-cyclopropyl-N-(cyclopropylsulfonyl)-4-((1-((3,5-dichlorophenyl)(phenyl)methyl)piperidin-4-yl)methoxy)-2-fluorobenzamide, trifluoroacetic acid salt], the IC50 was 0.8 nM. On to `CS(=O)(=O)N1CCC(COc2cc(F)c(C(=O)NS(=O)(=O)C3CC3)cc2C2CC2)CC1` [Example 394, 5-cyclopropyl-N-(cyclopropylsulfonyl)-2-fluoro-4-((1-(methylsulfonyl)piperidin-4-yl)methoxy)benzamide], for which the IC50 came out at 6010 nM.

For the compound `CC1(COc2cc(F)c(C(=O)NS(=O)(=O)N3CCC3)cc2C2CC2)CN(C(c2ccccc2)c2ccccc2)C1` [Example 71, N-(azetidin-1-ylsulfonyl)-4-((1-benzhydryl-3-methylazetidin-3-yl)methoxy)-5-cyclopropyl-2-fluorobenzamide], the IC50 turned out to be 3.1 nM. The same measure, in the same setting: the result for `CS(=O)(=O)NC(=O)c1cc(C2CC2)c(OCC2CN(C(c3ccccc3)c3ccccn3)C2)cc1F` (stereo in doubt) [Example 119, (S)-5-Cyclopropyl-2-fluoro-N-(methylsulfonyl)-4-((1-(phenyl(pyridin-2-yl)methyl)azetidin-3-yl)methoxy)benzamide] reads 306 nM.
